Assay results taken from patent publication US20210161131A1, “cis-p-Menthane-1,8-Di-secondary Amine Compounds as well as Their Preparation Methods and Application in Weed Control” (RESEARCH INSTITUTE OF FORESTRY NEW TECHNOLOGY, CHINESE …, priority 2019, published 2021).

Tested on: barnyard grass seeds
Assay: Petri dish seed germination method: inhibition of root and stem growth of barnyard grass
Assay type: in vivo
Conditions: 96 hours incubation
Experimental: (§1) Step 2: Accurately weigh 1 mmol cis-p-menthane-1,8-di-Schiff base compounds and cis-p-menthane-1,8-di-secondary amine compounds respectively, dissolve each of them with 0.25 mL DMF, and add a drop of Tween 80 in each resulted solution. After being fully dissolved, each solution is transferred to a 100 mL volumetric flask respectively and then diluted to the mark with distilled water to obtain a solution with a concentration of 10 mmol/L as the mother liquor. The two-fold dilution method is used to prepare diluted solutions with a series of concentrations (the concentrations of DMF and Tween 80 in the diluted solutions are the same as those in the mother liquor).
(§2) Barnyard grass seeds are placed in a 28° C. incubator and are soaked in an appropriate amount of distilled water for 12 hours there. After the clean water is filtered out, the seeds are then placed in the 28° C. incubator for 24 hours to germinate. Spread 2 pieces of filter paper in each of several Petri dishes, and place 10 barnyard grass seeds with the same size in each dish. Repeat each treatment for three times The dishes are divided into two groups: test dishes and control dishes. Add into each test dish 10 mL of the sample solution with the corresponding concentration of the target compound, and add into each control dish the same amount of the mixture of water, DMF and Tween 80 as the blank control. Add 10 seeds to each of the dishes (both test dishes and control dishes), place them in an artificial climate incubator, and incubate them for 96 hours under a temperature of 28° C., an illumination of 5000 1×, a photoperiod of day:night=16:8 and a relative humidity of 70-80%. The experimental data is processed and analyzed with DPS software to calculate the inhibition rate (y) of cis-p-menthane-1,8-di-secondary amine compounds on the root growth or stem growth of barnyard grass seeds.
Wherein, y is the inhibition rate of root growth or stem growth (%), x0 is the root length or stem length of the control, and x1 is the root length or stem length of the sample.
as §1, with “Accurately” for “Step 2: Accurately”, “cis-p-menthane-1,8-bis-(4-chlorophenyl)Schiff” for “cis-p-menthane-1,8-di-Schiff”, “base” for “base compounds”, “cis-p-menthane-1,8-bis-(4-chlorobenzyl)amine” for “cis-p-menthane-1,8-di-secondary amine compounds”, “(5 mmol/L, 2.5 mmol/L, 1.25 mmol/L, 0.625 mmol/L, 0.3125 mmol/L and 0.1563 mmol/L; the” for “(the”
as §2, with “placed in a 30° C. incubator” for “placed in the 28° C. incubator”, “in each Petri dish,” for “in each of several Petri dishes,”, “each Petri dish, and place” for “several Petri dishes, and place”, “with the above corresponding concentration” for “with the corresponding concentration”, “with DPS software.” for “with DPS software to calculate the inhibition rate (y) of cis-p-menthane-1,8-di-secondary amine compounds on the root growth or stem growth of barnyard grass seeds.”

Row | SMILES | inhibition rate on the root growth of barnyard grass seeds (0.15625 mmol/L) | inhibition rate on the stem growth of barnyard grass seeds (0.15625 mmol/L) | inhibition rate on the root growth of barnyard grass seeds (0.3125 mmol/L) | inhibition rate on the stem growth of barnyard grass seeds (0.3125 mmol/L) | inhibition rate on the root growth of barnyard grass seeds (0.625 mmol/L) | inhibition rate on the stem growth of barnyard grass seeds (0.625 mmol/L) | inhibition rate on the root growth of barnyard grass seeds (1.25 mmol/L) | inhibition rate on the stem growth of barnyard grass seeds (1.25 mmol/L) | inhibition rate on the root growth of barnyard grass seeds (2.5 mmol/L) | inhibition rate on the stem growth of barnyard grass seeds (2.5 mmol/L) | inhibition rate on the root growth of barnyard grass seeds (5 mmol/L) | inhibition rate on the stem growth of barnyard grass seeds (5 mmol/L)
1 | CC1(NCc2ccc(Cl)cc2)CCC(C(C)(C)NCc2ccc(Cl)cc2)CC1 (stereo not drawn) [cis-p-menthane-1,8-bis-(4-chlorobenzyl)amine] | 31.4% | 35.7% | 57.1% | 41.6% | 87.3% | 65.8% | 90.8% | 63.4% | 91.6% | 68.0% | 96.7% | 75.1%
2 | CC(C)(N=Cc1ccc(Cl)cc1)[C@H]1CC[C@@](C)(N=Cc2ccc(Cl)cc2)CC1 [cis-p-menthane-1,8-bis-(4-chlorophenyl) Schiff base, reference compound] | – | – | −5.0% | 1.4% | 24.3% | 4.6% | 76.7% | 23.9% | 49.9% | 22.8% | 92.4% | 20.9%
3 | CN(C)c1ccc(C=NC(C)(C)[C@H]2CC[C@@](C)(N=Cc3ccc(N(C)C)cc3)CC2)cc1 [cis-p-menthane-1,8-bis-(4-dimethylaminobenzyl)Schiff base, reference compound] | – | – | 9.7% | −12.2% | 45.4% | 9.5% | 49.8% | 6.9% | 59.3% | 1.9% | 67.1% | 13.2%
4 | CN(C)c1ccc(CNC2(C)CCC(C(C)(C)NCc3ccc(N(C)C)cc3)CC2)cc1 (stereo not drawn) [cis-p-menthane-1,8-bis-(4-dimethylaminobenzyl)amine] | 14.4% | 19.1% | 31.0% | 19.6% | 21.0% | 24.9% | 48.1% | 22.3% | 70.3% | 34.3% | 89.3% | 56.6%
5 | CC1(N=Cc2ccc(F)cc2)CCC(C(C)(C)N=Cc2ccc(F)cc2)CC1 (stereo not drawn) [cis-p-menthane-1,8-bis-(4-fluorobenzyl)Schiff base, reference compound] | – | – | 15.7% | −13.7% | 72.8% | 2.7% | 85.7% | 23.9% | 82.9% | 20.1% | 79.7% | 32.3%
6 | CC1(NCc2ccc(F)cc2)CCC(C(C)(C)NCc2ccc(F)cc2)CC1 (stereo not drawn) [cis-p-menthane-1,8-bis-(4-fluorobenzyl)amine] | 38.2% | 7.2% | 48.3% | 10.5% | 78.6% | 58.3% | 78.6% | 75.1% | 98.6% | 85.9% | 100.0% | 100.0%
7 | COc1ccc(C=NC2(C)CCC(C(C)(C)N=Cc3ccc(OC)cc3)CC2)cc1 (stereo not drawn) [cis-p-menthane-1,8-bis-(4-methoxybenzyl)Schiff base, reference compound] | – | – | 70.7% | 15.4% | 66.7% | 6.9% | 55.3% | 4% | 28.1% | 8.0% | 7.6% | 2.1%
8 | COc1ccc(CNC2(C)CCC(C(C)(C)NCc3ccc(OC)cc3)CC2)cc1 (stereo not drawn) [cis-p-menthane-1,8-bis-(4-methoxybenzyl)amine] | 37.8% | 9.9% | 42.2% | 27.9% | 88.7% | 72.5% | 95.1% | 70.6% | 96.5% | 84.4% | 100.0% | 84.3%
9 | Cc1ccc(CNC(C)(C)[C@H]2CC[C@@](C)(NCc3ccc(C)cc3)CC2)cc1 [cis-p-menthane-1,8-bis-(4-methylbenzyl)amine] | 42.5% | 42.1% | 86.6% | 64.6% | 89.6% | 65.9% | 91.9% | 74.7% | 95.2% | 87.1% | 100.0% | 93.3%
10 | CSc1ccc(CNC2(C)CCC(C(C)(C)NCc3ccc(SC)cc3)CC2)cc1 (stereo not drawn) [cis-p-menthane-1,8-bis-(4-methylthiobenzyl)amine] | 32.0% | 22.8% | 58.1% | 66.0% | 77.2% | 66.2% | 90.8% | 83.4% | 96.0% | 77.5% | 98.5% | 85.1%
